Measurements reported in PubChem BioAssay AID2060910 (Molecular Pharmacology Branch, DTP, NCI, 2025).

Test system: 242566-281-R-J2-PDC complex spheroid viability
Assay: Anticancer human tumor 242566-281-R-J2-PDC patient-derived pancreatic carcinoma cell line growth inhibition [RAS]
Details: for IC50: curve of first compound; for viability, T/C: stronger effect = lower value
Outline: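 Agents were tested in combination matrices in half-log decrements from a top concentration at or near clinical Cmax (10 microM if undetermined). Targets were multi-cell spheroids of tumour lines plus HUVEC and MSC stromal cells.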
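Further: spheroids exposed to compound for 7 days before readout.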
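Wherever viability, T/C is given: 100% = DMSO vehicle control wells.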

Cc1nc(N2CCC3(CC2)COC(C)C3N)c(CO)nc1Sc1ccnc(N)c1Cl (centres undefined) + CCn1c(-c2cc(N3CCN(C)CC3)cnc2C(C)OC)c2c3cc(ccc31)-c1csc(n1)CC(NC(=O)C1CC1C)C(=O)N1CCCC(N1)C(=O)OCC(C)(C)C2 showed an IC50 (second compound 0.000949 µM) of 353 nM, an IC50 (second compound 0.003 µM) of 71.8 nM and an IC50 (second compound 0.00949 µM) of under 31.6 nM. For the same compound, the IC50 (second compound 0.03 µM) was under 31.6 nM, the IC50 (second compound 0.0949 µM) was under 31.6 nM and the IC50 (second compound 0.3 µM) was under 31.6 nM. For the same compound, the viability, T/C (second compound 0.000949 µM, first compound 0.0316 µM) was 92.2%, the viability, T/C (second compound 0.000949 µM, first compound 0.1 µM) was 69.8% and the viability, T/C (second compound 0.000949 µM, first compound 0.316 µM) was 43.5%. It also gave a viability, T/C (second compound 0.000949 µM, first compound 1 µM) of 45%, a viability, T/C (second compound 0.000949 µM, first compound 3.16 µM) of 32.9% and a viability, T/C (second compound 0.000949 µM, first compound 10 µM) of 19.8%. For the same compound, the viability, T/C (second compound 0.003 µM, first compound 0.0316 µM) was 61%, the viability, T/C (second compound 0.003 µM, first compound 0.1 µM) was 46.9% and the viability, T/C (second compound 0.003 µM, first compound 0.316 µM) was 31%. For the same compound, the viability, T/C (second compound 0.003 µM, first compound 1 µM) was 28.2%, the viability, T/C (second compound 0.003 µM, first compound 3.16 µM) was 26.1% and the viability, T/C (second compound 0.003 µM, first compound 10 µM) was 16.1%. For the same compound, the viability, T/C (second compound 0.00949 µM, first compound 0.0316 µM) was 41.3%, the viability, T/C (second compound 0.00949 µM, first compound 0.1 µM) was 26.4% and the viability, T/C (second compound 0.00949 µM, first compound 0.316 µM) was 27.9%. It also gave a viability, T/C (second compound 0.00949 µM, first compound 1 µM) of 21.9%, a viability, T/C (second compound 0.00949 µM, first compound 3.16 µM) of 19.4% and a viability, T/C (second compound 0.00949 µM, first compound 10 µM) of 17.1%. For the same compound, the viability, T/C (second compound 0.03 µM, first compound 0.0316 µM) was 25.8%, the viability, T/C (second compound 0.03 µM, first compound 0.1 µM) was 24.3% and the viability, T/C (second compound 0.03 µM, first compound 0.316 µM) was 19.3%. For the same compound, the viability, T/C (second compound 0.03 µM, first compound 1 µM) was 17.9%, the viability, T/C (second compound 0.03 µM, first compound 3.16 µM) was 15.1% and the viability, T/C (second compound 0.03 µM, first compound 10 µM) was 14.9%. The viability, T/C (second compound 0.0949 µM, first compound 0.0316 µM) was 21.5%, the viability, T/C (second compound 0.0949 µM, first compound 0.1 µM) was 19.1% and the viability, T/C (second compound 0.0949 µM, first compound 0.316 µM) was 18.5%. It also gave a viability, T/C (second compound 0.0949 µM, first compound 1 µM) of 16.9%, a viability, T/C (second compound 0.0949 µM, first compound 3.16 µM) of 14.3% and a viability, T/C (second compound 0.0949 µM, first compound 10 µM) of 15.4%. For the same compound, the viability, T/C (second compound 0.3 µM, first compound 0.0316 µM) was 21.5%, the viability, T/C (second compound 0.3 µM, first compound 0.1 µM) was 18.1% and the viability, T/C (second compound 0.3 µM, first compound 0.316 µM) was 16.6%. For the same compound, the viability, T/C (second compound 0.3 µM, first compound 1 µM) was 14.8%, the viability, T/C (second compound 0.3 µM, first compound 3.16 µM) was 16.4% and the viability, T/C (second compound 0.3 µM, first compound 10 µM) was 12.9%.
CC(Nc1ccc2c(c1)OCCn1cc(N3C(=O)OCC3C(F)F)nc1-2)C(N)=O (centres undefined) + C#Cc1c(F)ccc2cc(O)cc(-c3ncc4c(N5CC6CCC(C5)N6)nc(OCC56CCCN5CC(F)C6)nc4c3F)c12 was tested, and the IC50 (second compound 0.0316 µM) was 437 nM, the IC50 (second compound 0.1 µM) was 184 nM and the IC50 (second compound 0.316 µM) was 106 nM. The IC50 (second compound 1 µM) was 60.3 nM, the IC50 (second compound 3.16 µM) was under 31.6 nM and the IC50 (second compound 10 µM) was under 31.6 nM. The viability, T/C (second compound 0.0316 µM, first compound 0.0316 µM) was 101%, the viability, T/C (second compound 0.0316 µM, first compound 0.1 µM) was 82.8% and the viability, T/C (second compound 0.0316 µM, first compound 0.316 µM) was 56.6%. The viability, T/C (second compound 0.0316 µM, first compound 1 µM) was 32.5%, the viability, T/C (second compound 0.0316 µM, first compound 3.16 µM) was 22.3% and the viability, T/C (second compound 0.0316 µM, first compound 10 µM) was 14.2%. It also gave a viability, T/C (second compound 0.1 µM, first compound 0.0316 µM) of 75%, a viability, T/C (second compound 0.1 µM, first compound 0.1 µM) of 63.7% and a viability, T/C (second compound 0.1 µM, first compound 0.316 µM) of 37.3%. It also gave a viability, T/C (second compound 0.1 µM, first compound 1 µM) of 22.4%, a viability, T/C (second compound 0.1 µM, first compound 3.16 µM) of 13.2% and a viability, T/C (second compound 0.1 µM, first compound 10 µM) of 8.11%. The viability, T/C (second compound 0.316 µM, first compound 0.0316 µM) was 68%, the viability, T/C (second compound 0.316 µM, first compound 0.1 µM) was 51.2% and the viability, T/C (second compound 0.316 µM, first compound 0.316 µM) was 24.8%. The viability, T/C (second compound 0.316 µM, first compound 1 µM) was 8.79%, the viability, T/C (second compound 0.316 µM, first compound 3.16 µM) was 7.1% and the viability, T/C (second compound 0.316 µM, first compound 10 µM) was 4.15%. It also gave a viability, T/C (second compound 1 µM, first compound 0.0316 µM) of 58.1%, a viability, T/C (second compound 1 µM, first compound 0.1 µM) of 43.7% and a viability, T/C (second compound 1 µM, first compound 0.316 µM) of 23%. It also gave a viability, T/C (second compound 1 µM, first compound 1 µM) of 9.54%, a viability, T/C (second compound 1 µM, first compound 3.16 µM) of 6.78% and a viability, T/C (second compound 1 µM, first compound 10 µM) of 3.29%. It also gave a viability, T/C (second compound 3.16 µM, first compound 0.0316 µM) of 46.5%, a viability, T/C (second compound 3.16 µM, first compound 0.1 µM) of 39.2% and a viability, T/C (second compound 3.16 µM, first compound 0.316 µM) of 14%. For the same compound, the viability, T/C (second compound 3.16 µM, first compound 1 µM) was 9.39%, the viability, T/C (second compound 3.16 µM, first compound 3.16 µM) was 5.47% and the viability, T/C (second compound 3.16 µM, first compound 10 µM) was 3.71%. For the same compound, the viability, T/C (second compound 10 µM, first compound 0.0316 µM) was 44%, the viability, T/C (second compound 10 µM, first compound 0.1 µM) was 32.7% and the viability, T/C (second compound 10 µM, first compound 0.316 µM) was 19.8%. The viability, T/C (second compound 10 µM, first compound 1 µM) was 6.3%, the viability, T/C (second compound 10 µM, first compound 3.16 µM) was 5.27% and the viability, T/C (second compound 10 µM, first compound 10 µM) was 2.24%.
